The source of these data is publication PMC4950319, “Kinetic and structural characterization of amyloid‐β peptide hydrolysis by human angiotensin‐1‐converting enzyme” (The Febs Journal, 2016).

In experiment [1] the test system is sACE (human ACE). As to conditions: cited from earlier work; for interdomain cooperativity: human ACE enzymes; for degree of cooperativity between domains: compared with many synthetic peptides. From the text: Due to the C‐domain's poorer hydrolysis of Aβ we can infer that the C‐domain appears ...
In experiment [2] the target is T1, C‐sACE (Homo sapiens, UniProt P12821, H390K/H394K).
T1 construct: Both constructs have the complete signal, transmembrane and stalk region corresponding to full‐length sACE; made in house; host or cells: CHO cells; purified from cell lysate
T1 sequence (P12821 30-1306 H390K/H394K): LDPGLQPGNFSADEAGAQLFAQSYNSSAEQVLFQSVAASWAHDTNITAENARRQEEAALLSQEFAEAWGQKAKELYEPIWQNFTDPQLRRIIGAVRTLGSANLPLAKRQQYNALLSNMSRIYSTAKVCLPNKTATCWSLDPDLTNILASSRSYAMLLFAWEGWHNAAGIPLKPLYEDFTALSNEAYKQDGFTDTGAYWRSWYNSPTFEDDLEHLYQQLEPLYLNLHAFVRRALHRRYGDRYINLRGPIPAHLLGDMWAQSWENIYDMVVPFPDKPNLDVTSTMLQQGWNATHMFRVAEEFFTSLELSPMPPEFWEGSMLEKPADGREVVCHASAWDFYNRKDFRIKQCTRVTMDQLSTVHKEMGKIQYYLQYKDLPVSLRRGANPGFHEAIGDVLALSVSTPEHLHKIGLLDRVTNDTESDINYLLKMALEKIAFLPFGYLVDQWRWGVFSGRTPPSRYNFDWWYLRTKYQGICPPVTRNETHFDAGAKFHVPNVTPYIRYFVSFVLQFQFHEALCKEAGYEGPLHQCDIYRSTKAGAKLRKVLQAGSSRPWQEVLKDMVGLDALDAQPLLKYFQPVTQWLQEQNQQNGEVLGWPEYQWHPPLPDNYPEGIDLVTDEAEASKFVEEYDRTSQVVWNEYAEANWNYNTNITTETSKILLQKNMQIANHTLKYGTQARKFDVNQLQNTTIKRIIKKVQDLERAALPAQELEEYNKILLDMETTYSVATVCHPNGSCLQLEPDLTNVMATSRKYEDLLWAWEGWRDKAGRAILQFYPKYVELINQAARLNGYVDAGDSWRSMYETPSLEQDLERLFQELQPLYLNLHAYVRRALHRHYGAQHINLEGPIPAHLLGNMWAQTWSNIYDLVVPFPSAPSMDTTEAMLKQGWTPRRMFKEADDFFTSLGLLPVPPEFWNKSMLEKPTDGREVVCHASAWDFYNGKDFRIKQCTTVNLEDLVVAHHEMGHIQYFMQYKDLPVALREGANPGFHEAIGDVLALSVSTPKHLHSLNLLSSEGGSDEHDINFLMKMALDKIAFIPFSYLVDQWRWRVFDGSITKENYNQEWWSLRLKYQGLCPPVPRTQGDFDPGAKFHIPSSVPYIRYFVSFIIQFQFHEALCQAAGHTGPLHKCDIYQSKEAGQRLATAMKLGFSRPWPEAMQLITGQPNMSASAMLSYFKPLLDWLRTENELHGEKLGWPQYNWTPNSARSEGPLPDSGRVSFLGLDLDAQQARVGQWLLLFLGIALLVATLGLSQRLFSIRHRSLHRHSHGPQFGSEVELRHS
The experiment in a line: Aβ(4–10)Q hydrolysis by C‐sACE, fluorogenic assay. As to conditions: fluorescence λex 320 nm, λem 420 nm, 50 mM Hepes pH 7.5, 100 mM NaCl, 10 μM ZnSO4, substrate 0 to 30 μM, 45 min, 37 °C, enzyme 1.50 pmol, n = 3. The experiment is classed as biochemical. From the text: (§1) Fluorogenic substrates designed around the established N‐terminal Asp7‐Ser8 cleavage site of the full‐length Aβ(1–42) were used to develop a higher throughput assay. There are two variations of the short fluorogenic peptides: Aβ(4–10)Q (Abz‐FRHDSG(Q)‐EDDnp) which has an N‐terminal Abz donor and a C‐terminal EDDnp quencher group attached to an additional Gln residue. The second peptide, Aβ(4–10)Y (Abz‐FRHDSG‐(NT)) has a different quencher molecule, NT, which substitutes for the naturally occurring Tyr residue.
(§2) Hydrolysis of the fluorogenic peptide Abz‐FRHDSG(Q)‐EDDnp (Aβ(4–10)Q, obtained from A. Carmona, Universidade Federal de São Paulo, Brazil) was performed in Hepes buffer (50 mM Hepes pH 7.5, 100 mM NaCl, 10 μM ZnSO4 buffer) with 150 μL enzyme (at final concentrations within 10% hydrolysis of total substrate; see Table 2) and equal volume of substrate ranging from 0 to 30 μM. The assay is a modified form of the continuous assay 7 where the assay is set up on ice in triplicate in a 96‐well plate. The baseline fluorescence was at time zero and then the substrate was incubated at 37 °C and fluorescence read at the 45 min time point on a Cary Eclipse spectrofluorimeter (Varian Inc.) at λex = 320 nm and λem = 420 nm. Again, kinetic constants were calculated using the Michaelis–Menten method with […] PRISM software (v4.01, GraphPad Prism®). The detected fluorescence was converted to picamoles product formed through the slope of a calibration curve of Abz‐Gly. A correction curve was also applied to correct the data for the inner filter effect 70.
(§3) Statistical analysis of the data was determined by Student's t test. Differences with P < 0.05 were considered statistically significant. Fractional error was calculated for the k cat/K m ratio with the following equation: ΔZ=ZΔa/a^2+Δb/b^2 where Z represents the mean k cat/K m and ΔZ represents the fractional error. The Δa represents the SEM of the mean k cat (a). Similarly, Δb represents the SEM of the mean K m (b).

Experiment [3] has as its target T2, N‐sACE (Homo sapiens, UniProt P12821, H988K/H992K).
T2 construct: Both constructs have the complete signal, transmembrane and stalk region corresponding to full‐length sACE; made in house; host or cells: CHO cells; purified from cell lysate
Nature of the experiment: Aβ(4–10)Q hydrolysis by N‐sACE, fluorogenic assay. The experiment is classed as biochemical. As to conditions: fluorescence λex 320 nm, λem 420 nm, 50 mM Hepes pH 7.5, 100 mM NaCl, 10 μM ZnSO4, substrate 0 to 30 μM, 45 min, 37 °C, enzyme 9.00 pmol, n = 3.
Description: as §1, §2, §3

Experiment [4] addresses T3, sACE (Homo sapiens, UniProt P12821).
T3 construct: made in house; host or cells: CHO cells; purified from cell lysate
The experiment in a line: Aβ(4–10)Q hydrolysis by sACE, fluorogenic assay. The experiment is classed as biochemical. As to conditions: fluorescence λex 320 nm, λem 420 nm, 50 mM Hepes pH 7.5, 100 mM NaCl, 10 μM ZnSO4, substrate 0 to 30 μM, 45 min, 37 °C, enzyme 1.50 pmol, n = 3.
Description: as §1, §2, §3

Experiment [5] has as its system ACE variants. Nature of the experiment: Cleavage‐site analysis by MALDI‐TOF MS, kinetic assay conditions. The experiment is classed as biochemical, human. As to conditions: MALDI‐TOF MS of products within kinetic assay conditions; Aβ(1–16): all ACE variants except Cdom; Aβ(4–10) peptides: Cdom and CC‐sACE not analysed. The procedure: The mass spectrometry was analysed at the Centre for Proteomic and Genomic Research (Cape Town, South Africa). Briefly, the collected peptides were spotted onto a 10 mg·mL^−1 α‐cyano‐4‐hydroxycinnamic acid matrix (Fluka, USA) in 80% ACN, 0.2% TFA for a final concentration of 5 mg·mL^−1 matrix in 40% ACN, 0.1% TFA, 10 mM NH4H2PO4. Mass spectrometry was performed with a 4800 MALDI‐TOF/TOF (Applied Biosytems) with all spectra recorded in positive reflector mode. Spectra were generated with 400 laser shots/spectrum at a laser intensity of 3800 (arbitrary units) with a grid voltage of 16 kV.

The test system of experiment [6] is CC‐sACE. The experiment in a line: Aβ(4–10)Q hydrolysis by CC‐sACE, fluorogenic assay. The experiment is classed as biochemical, human. As to conditions: Hepes pH 7.5, 37 °C, 45 min, fluorescence.
Chain of CC‐sACE (P12821 643-1222 limits assumed): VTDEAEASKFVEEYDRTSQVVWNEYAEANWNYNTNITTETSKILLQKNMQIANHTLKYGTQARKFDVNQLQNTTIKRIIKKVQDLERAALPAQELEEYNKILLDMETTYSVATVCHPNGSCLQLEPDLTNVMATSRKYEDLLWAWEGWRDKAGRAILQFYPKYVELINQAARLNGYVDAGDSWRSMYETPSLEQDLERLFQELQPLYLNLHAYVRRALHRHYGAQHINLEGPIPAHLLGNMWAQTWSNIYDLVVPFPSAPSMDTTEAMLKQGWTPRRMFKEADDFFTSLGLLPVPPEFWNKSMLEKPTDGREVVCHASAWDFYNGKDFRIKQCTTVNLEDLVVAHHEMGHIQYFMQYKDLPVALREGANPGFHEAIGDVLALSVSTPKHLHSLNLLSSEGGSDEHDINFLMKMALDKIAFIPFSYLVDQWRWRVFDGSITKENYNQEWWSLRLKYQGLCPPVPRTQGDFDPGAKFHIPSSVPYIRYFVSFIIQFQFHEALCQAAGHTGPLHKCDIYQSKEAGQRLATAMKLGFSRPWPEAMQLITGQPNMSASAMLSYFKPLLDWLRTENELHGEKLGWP
Description: as §1
as §2, with “The assay is a modified form of the continuous assay 7 where the assay is set up on ice in triplicate in a 96‐well plate.” left out, “PRISM software (v4.01, GraphPad Prism®).” left out, “A correction curve was also applied to correct the data for the inner filter effect 70.” left out
Statistical analysis of the data was determined by Student's t test. […]

Experiment [7] has as its target T4, Ndom (soluble form of the N‐domain of sACE) (Homo sapiens, UniProt P12821).
T4 construct: made in house; host or cells: CHO cells
Nature of the experiment: Aβ(4–10)Q hydrolysis by Ndom, fluorogenic assay. As to conditions: fluorescence λex 320 nm, λem 420 nm, 50 mM Hepes pH 7.5, 100 mM NaCl, 10 μM ZnSO4, substrate 0 to 30 μM, 45 min, 37 °C, enzyme 0.60 pmol, n = 3. The experiment is classed as biochemical.
Description: as §1, §2, §3

Experiment [8] has as its target T3, sACE. Nature of the experiment: Interdomain cooperativity in hydrolysis of Aβ substrates. The experiment is classed as biochemical. As to conditions: two domains of sACE, truncated and full‐length constructs compared. As for the experimental part: Mixtures were separated on a Poroshell 120 EC‐18 column with a 2.7 μm pore size. The reaction consists of 25 μL substrate incubated with 25 μL enzyme for 15 min at 37 °C and was stopped with the addition of 10 μL of 0.25% trifluoroacetic acid (TFA). The total reaction (60 μL) was cleared of contaminants on a spin column (GHP Nanosep® MF Centrifugal Device 0.45 μm pore size) and run on the HPLC. Kinetic parameters were determined through the fitting of initial rates to the Michaelis–Menten equation with […] PRISM software (v 4.01, GraphPad Prism®).
The reaction was incubated for 15 min at 37 °C and stopped with the addition of 10 μL 0.25% TFA to make up a total volume of 60 μL. The reactions were performed in triplicate and 50 μL injections were analysed via HPLC (Agilent Technologies) across a gradient of 0.1% TFA and 2% ACN in water to 0.1% TFA, 95% ACN. A calibration curve was set up to convert the product peak area to picomoles product formed, through the complete hydrolysis of the substrate with the N‐domain. […] Kinetic constants were calculated using the Michaelis–Menten method using […] […]
The assay is a modified form of the continuous assay 7 where the assay is set up on ice in triplicate in a 96‐well plate. The baseline fluorescence was at time zero and then the substrate was incubated at 37 °C and fluorescence read at the 45 min time point on a Cary Eclipse spectrofluorimeter (Varian Inc.) at λex = 320 nm and λem = 420 nm. Again, kinetic constants were calculated using the Michaelis–Menten method with […] […] The detected fluorescence was converted to picamoles product formed through the slope of a calibration curve of Abz‐Gly. […]
An alternative fluorogenic peptide, Abz‐FRHDSG‐(NT) (BIOPEP™ South Africa) was assayed, with 100 μL enzyme and 100 μL substrate (at a final enzyme concentration within 10% hydrolysis of total substrate; see Table 3) as above, in 96‐well plates. The samples were read at the 5 min time point on a Cary Eclipse spectrofluorimeter (Varian Inc.) at λex = 320 nm and λem = 420 nm. Kinetic constants, inner filter effect and standard curves were calculated as above.

In experiment [9] the target is soluble form of the N-domain of human sACE (Ndom) (human) (UniProt P12821).
Chain of soluble form of the N-domain of human sACE (Ndom) (human) (P12821 30-658): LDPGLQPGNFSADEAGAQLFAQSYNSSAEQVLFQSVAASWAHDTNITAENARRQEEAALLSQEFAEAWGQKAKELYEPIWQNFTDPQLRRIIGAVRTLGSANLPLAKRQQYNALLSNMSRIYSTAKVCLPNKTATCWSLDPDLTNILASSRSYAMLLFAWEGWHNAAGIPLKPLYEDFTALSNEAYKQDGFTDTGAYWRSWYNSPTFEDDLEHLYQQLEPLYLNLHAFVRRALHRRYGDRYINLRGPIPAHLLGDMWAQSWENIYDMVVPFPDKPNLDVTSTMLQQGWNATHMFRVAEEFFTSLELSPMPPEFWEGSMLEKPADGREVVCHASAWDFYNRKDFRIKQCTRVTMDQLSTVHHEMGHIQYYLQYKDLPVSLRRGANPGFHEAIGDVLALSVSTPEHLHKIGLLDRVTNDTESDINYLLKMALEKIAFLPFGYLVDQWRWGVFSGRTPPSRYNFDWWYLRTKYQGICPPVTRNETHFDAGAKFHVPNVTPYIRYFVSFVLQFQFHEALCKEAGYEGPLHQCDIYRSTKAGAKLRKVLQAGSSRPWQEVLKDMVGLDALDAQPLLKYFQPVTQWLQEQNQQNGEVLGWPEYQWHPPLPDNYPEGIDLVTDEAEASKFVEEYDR
In experiment [10] the target is full-length domain knockout variant of human sACE with only the N-domain active (N-sACE) (human) (UniProt P12821).
Chain of full-length domain knockout variant of human sACE with only the N-domain active (N-sACE) (human) (P12821 other isoform, or with tags, fused parts or gaps, change not shown): as the sequence (P12821 30-1306 H390K/H394K) above, with K361H, K365H, H959K, H963K counted along it
Experiment [11] concerns the target human wild-type somatic ACE (sACE) (human) (UniProt P12821).
Experiment [12] deals with full-length domain knockout variant of human sACE with only the C-domain active (C-sACE) (human) (UniProt P12821).
Chain of full-length domain knockout variant of human sACE with only the C-domain active (C-sACE) (human) (P12821 other isoform, or with tags, fused parts or gaps, change not shown): as the sequence (P12821 30-1306 H390K/H394K) above
Experiment [13] has as its system ACE. As to conditions: full‐length Aβ(1–42); cited from earlier work. From the text:
This type of cleavage has been observed in previous studies with other amyloid peptides 23, 24 and was also observed in the crystal structures of the N‐domain in complex with all the Aβ fragments tested. Based on the MS analysis of th ...

The target in experiment [14] is full-length domain knockout variant of human sACE with only the N-domain active (N-sACE) (human) (UniProt P12821). This is another data set of the same source.
Experiment [15] concerns the target full-length domain knockout variant of human sACE with only the C-domain active (C-sACE) (human) (UniProt P12821). The source holds these as a separate data set.
In experiment [16] the target is full-length domain knockout variant of human sACE with only the N-domain active (N-sACE) (human) (UniProt P12821). This is another data set of the same source.
The target in experiment [17] is full-length domain knockout variant of human sACE with only the C-domain active (C-sACE) (human) (UniProt P12821). The source holds these as a separate data set.
Setting [18] is: mean ± fractional error of the ratio.

“And” between values parts separate entries of the source, which are not always exact repeats. Equal values may be shown once. Where no end group is shown, it is not given here. [ ]: non-standard residue; d: D form. The star is where a group is joined. Tyr(3-NO2) = N[C@@H](Cc1ccc(O)c([N+](=O)[O-])c1)C(=O)O; EDDnp = O=[N+]([O-])c1ccc(NCCN*)c([N+](=O)[O-])c1; 2Abz = Nc1ccccc1C(=O)O; Cbz = O=C(OCc1ccccc1)*

T2 sequence (P12821 30-1306 H988K/H992K): as the sequence (P12821 30-1306 H390K/H394K) above, with K361H, K365H, H959K, H963K counted along it
T4 sequence (P12821 30-658): as the sequence (P12821 30-658) above
T3 sequence (P12821 30-1306): as the sequence (P12821 30-1306 H390K/H394K) above, with K361H, K365H counted along it
Chain of human wild-type somatic ACE (sACE) (human) (P12821 30-1306): as the sequence (P12821 30-1306 H390K/H394K) above, with K361H, K365H counted along it

Regarding (Abz)‐LFK(Dnp)‐OH, the “effect of the presence of the N‐domain on hydrolysis” value in [1] is on record as “regulatory effects”.

Turning to “Abz‐FRHDSG(Q)‐EDDnp [Aβ(4–10)Q, fluorogenic Aβ(4–10) peptide, Abz donor, EDDnp quencher attached to additional Gln]”, the K m in experiment [2] (mean ± SEM) was found to be 11.50 ± 3.03 µM; in experiment [3] (mean ± SEM), 42.43 ± 3.92 µM; in experiment [4] (mean ± SEM), 22.90 ± 3.45 µM; in [7] (mean ± SEM) it was 22.20 ± 3.23 µM. Besides, the V max was determined as 0.12 ± 0.01 in experiment [2] (mean ± SEM), 3.23 ± 0.20 in [3] (mean ± SEM), 0.09 ± 0.01 in experiment [4] (mean ± SEM) and 0.29 ± 0.02 in [7] (mean ± SEM). Besides, the k cat in experiment [2] (mean ± SEM) worked out at 0.08 ± 0.01 s⁻¹; in [3] (mean ± SEM) it was 0.36 ± 0.02 s⁻¹; in [4] (mean ± SEM), 0.06 ± 0.01 s⁻¹; in [7] (mean ± SEM) it was 0.48 ± 0.04 s⁻¹. Moreover, the “k cat/K m” value in [2] (setting [18]) is 0.08 ± 0.02 M^−1·s^−1 × 10^5; in [3] (setting [18]), 0.09 M^−1·s^−1 × 10^5 and 0.09 ± 0.01 M^−1·s^−1 × 10^5; in experiment [4] (setting [18]) it was 0.03 ± 0.01 M^−1·s^−1 × 10^5; in [7] (setting [18]) it was 0.22 M^−1·s^−1 × 10^5 and 0.22 ± 0.04 M^−1·s^−1 × 10^5. Further, the “cleavage site (bond)” value in [5] is listed as “Asp7‐Ser8”. In addition, in [6], the “hydrolysis by CC‐sACE” value is “almost no hydrolysis”. Further, the interdomain cooperativity result in [8] is recorded as “This is also true for the Aβ(4–10)Q substrate, although to a much lesser extent”.

Regarding Aβ(1–16) (H-…-OH) (peptide), the Km of hydrolysis of Aβ(1–16) (HPLC assay, 15 min, 37 °C, 50 mM Hepes pH 7.5, 100 mM NaCl, 10 μM ZnSO4) is 21.4 μM in experiment [9], 34.2 μM in experiment [10], 35.2 μM in experiment [11] and 42.4 μM in experiment [12].

As to Aβ(1–42): full‐length Aβ(1–42), the cleavage sites result in experiment [13] was “multiple cleavage sites”.

As for Cbz-Phe-His-Leu [ACE substrate], in experiment [1], the “effect of the presence of the N‐domain on hydrolysis” value is listed as “regulatory effects”.

“angiotensin I (DRVYIHPFHL; Angiotensin-1; UniProt P01019 25-34, looked up) [physiological ACE substrate]”: the interdomain cooperativity result in [1] was “showed a similar result for angiotensin I and angiotensin‐(1‐7) but not angiotensin‐(1‐9)”.

Take “angiotensin‐(1‐7) (DRVYIHP; Angiotensin 1-7; UniProt P01019 25-31, looked up, fragment) [physiological substrate]”: in [1], the interdomain cooperativity entry was “showed a similar result for angiotensin I and angiotensin‐(1‐7) but not angiotensin‐(1‐9)”.

For the molecule “angiotensin‐(1‐9) (DRVYIHPFH; Angiotensin 1-9; UniProt P01019 25-33, looked up, fragment) [physiological substrate]”, in experiment [1], the “degree of cooperativity between domains” value is reported as “considerably less than many synthetic peptides”; the interdomain cooperativity result is “showed a similar result for angiotensin I and angiotensin‐(1‐7) but not angiotensin‐(1‐9)”.

With “bradykinin (RPPGFSPFR; Bradykinin; UniProt P01042 381-389, looked up) [vasodilatory peptide, physiological substrate]”, the “degree of cooperativity between domains” value in [1] is recorded as “considerably less than many synthetic peptides”.

Turning to [2Abz]FRHDSGQ-EDDnp [Aβ(4–10)Q (Abz-FRHDSG(Q)-EDDnp)], the Km of hydrolysis of Aβ(4–10)Q (fluorescence assay, 45 min, 37 °C, 50 mM Hepes pH 7.5, 100 mM NaCl, 10 μM ZnSO4) in experiment [14] was found to be 42.4 μM; in [15] it was 11.5 μM.

With [2Abz]FRHDSG[Tyr(3-NO2)] [Aβ(4–10)Y (Abz-FRHDSG-(NT))], the Km of hydrolysis of Aβ(4–10)Y (fluorescence assay, read at 5 min) in [16] worked out at 8.56 µM; in experiment [17] it was 38.1 µM.
